Key:
[1] = test system: 5-HT-binding DNA aptamer (44-mer) (DNA, aptamer) CGACTGGTAGGCAGATAGGGGAAGCTGATTCGATGCGTGGGTCG; experiment: single-frequency EIS; conditions: Mg2+ 2 mM, 1X PBS; some cross-reactivity; microfluidic flow; concentration not given
[2] = test system: 5-HT-binding DNA aptamer (44-mer) (DNA, aptamer) CGACTGGTAGGCAGATAGGGGAAGCTGATTCGATGCGTGGGTCG; experiment: electrochemical impedance spectroscopy; conditions: Mg2+ 2 mM, 1X PBS; apparent; 30 min exposure in 1X PBS; read in ferri/ferrocyanide 5 mM, pH 7.1; Hill fit
[3] = test system: 5-HT-binding DNA aptamer (44-mer) (DNA, aptamer) CGACTGGTAGGCAGATAGGGGAAGCTGATTCGATGCGTGGGTCG; experiment: square wave voltammetry; conditions: Mg2+ 2 mM, 1X PBS; apparent; 30 min exposure in 1X PBS; read in ferri/ferrocyanide 5 mM, pH 7.1; Hill fit
[4] = test system: 5-HT-binding DNA aptamer (44-mer) (DNA, aptamer) CGACTGGTAGGCAGATAGGGGAAGCTGATTCGATGCGTGGGTCG; experiment: EIS and SWV; single-frequency EIS; conditions: Mg2+ 2 mM, 1X PBS; selectivity test; highest concentration not given in text

SMILES | binding [1] | binding [4] | also measured
O=C(O)Cc1c[nH]c2ccc(O)cc12 | weak | – | –
NCCc1c[nH]c2ccc(O)cc12 | – | – | kd,eff [2]: 343.54 ± 61.03 nM; kd,eff [3]: 306.76 ± 41.54 nM
N[C@@H](Cc1c[nH]c2ccc(O)cc12)C(=O)O | weak | – | –
NC[C@H](O)c1ccc(O)c(O)c1 | – | no | –
NCCc1ccc(O)c(O)c1 | – | no | –
N[C@@H](Cc1c[nH]c2ccccc12)C(=O)O | weak | – | –

Source: article PMC10669129 (2023)
